{"source": "patent US20230065562A1", "about": "“DUAL CONTROLS FOR THERAPEUTIC CELL ACTIVATION OR ELIMINATION” (Bellicum Pharmaceuticals, Inc., priority 2015, published 2023)", "key": {"[1]": {"tested_on": "luciferase-expressing U266 myeloma cells", "test": "NSG mice engrafted with U266 myeloma cells, iMC-PRAME TCR T cells with rimiducid", "format": "in vivo, mouse", "procedure": "FIG. 121: (A) NSG mice were engrafted with 1×10^6 luciferase-expressing U266 myeloma cells and treated with […] non-transduced, PRAME TCR- or iMC-PRAME TCR-transduced T cells on day 13. […] (B) Tumor growth was measured by bioluminescence imaging."}, "[2]": {"tested_on": "HLA-B7+Bob-1+ U266 multiple myeloma", "test": "iMC-Bob-1 TCR cytotoxicity and IL-2 secretion against U266", "format": "cell-based", "excerpt": "FIG. 120: (A) iMC-Bob-1 TCR-mediated cytotoxicity against HLA-B7^+Bob-1^+ U266 multiple myeloma is rimiducid-independent. […] Go156 TCR is a negative control TCR."}, "[3]": {"tested_on": "SLL-peptide pulsed T2 cells", "test": "IL-2 secretion of iMC-PRAME TCR T cells with SLL-peptide pulsed T2 cells", "format": "cell-based", "conditions": "FIG. 117D"}, "[4]": {"tested_on": "transduced T cells (human PBMCs)", "test": "IL-6 ELISA as indicator of MC activity in transduced T cells", "format": "cell-based"}, "[5]": {"target": "T1, iRC9 (Homo sapiens, UniProt P42345+P62942)", "T1 construct": "expressed in transfected cells; host or cells: 293 cells", "T1 sequence (P42345 2025-2113)": "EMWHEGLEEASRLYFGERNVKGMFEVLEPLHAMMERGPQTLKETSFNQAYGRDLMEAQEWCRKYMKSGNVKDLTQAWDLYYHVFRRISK", "T1 sequence (P62942 2-107)": "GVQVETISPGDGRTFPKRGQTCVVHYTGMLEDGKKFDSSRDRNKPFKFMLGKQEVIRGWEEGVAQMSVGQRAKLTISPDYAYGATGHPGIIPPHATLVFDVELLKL", "T1 sequence (P55211 135-416 partner limits assumed)": "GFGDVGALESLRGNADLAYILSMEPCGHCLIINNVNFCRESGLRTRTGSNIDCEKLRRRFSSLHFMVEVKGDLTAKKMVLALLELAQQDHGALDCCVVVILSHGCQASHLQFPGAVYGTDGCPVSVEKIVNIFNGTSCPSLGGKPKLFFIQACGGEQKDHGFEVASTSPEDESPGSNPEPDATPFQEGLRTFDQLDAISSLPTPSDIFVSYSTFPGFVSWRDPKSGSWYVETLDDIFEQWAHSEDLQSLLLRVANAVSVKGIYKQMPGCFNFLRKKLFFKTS", "test": "Incucyte/casp3/7 and SEAP assays in transfected 293 cells (FIG. 107)", "format": "cell-based", "procedure": "FIG. 107. […] 293 cells were seeded at 300,000 cells/well in a 6-well plate and allowed to grow for 2 days. After 48 h, cells were transfected with 1 μg of experimental plasmids. Cells were harvested 48 h after transfection and diluted 2.5× their original volume."}, "[6]": {"tested_on": "HPAC PSCA+ tumor cells", "test": "T cell anti-tumor assay with HPAC-RFP cells (IncuCyte, ELISA)", "format": "cell-based, human", "conditions": "10 nM on day 7 of co-culture", "procedure": "PBMCs from donor 920 were activated and co-transduced with GFP-Ffluc and iMC+CARζ-T (189), i9+CARζ+MC (873), or FwtFRBC9/MC.FvFv (1308)-encoding vectors. […] (A & B) Two days post-seeding, culture supernatants were analyzed for IL-2, IL-6, and IFN-γ production by ELISA. […] Numbers of HPAC-RFP and T cell-GFP at the E:T 1:2 ratio was analyzed using the basic analyzer software for the IncuCyte at day 7 (Ci) and day 8 with 0 nM suicide drug (Cii) and 10 nM suicide drug (Ciii). Similar analysis was also performed at the 1:5 E:T ratio (D). (Note: the y-axis in Ci and Di are at log-scale).\nThe HPAC PSCA^+ tumor cells were stably labeled with nuclear-localized RFP protein using the NucLight™ Red Lentivirus Reagent (Essen Bioscience, 4625). To set up the coculture, 4000 HPAC-RFP cells were seeded per well of 96-well plates in 100 μl of CTL medium without IL-2 for at least 4 hours to allow tumor cells to adhere. After transduction with the appropriate retrovirus and allowed to rest for at least 7 days in culture, T were seeded according to various E:T ratios to the HPAC-RFP-containing 96-well plates. […] Each plate was set up in duplicates, one plate to monitor with the IncuCyte cell imaging system and one plate for supernatant collection for ELISA assay on day 2. The plates were centrifuged for 5 min at 400×g and placed inside the IncuCyte (Essen Bioscience, Dual Color Model 4459) to monitor red fluorescence (and green fluorescence if T cells were labeled with GFP-Ffluc) every 2-3 hours for a total of 7 days at 10× objective. Image analysis was performed using the “HPAC-RFP_TcellsGFP_10×_MLD” processing definition. On day 7, HPAC-RFP cells were analyzed using the “Red Object Count (1/well)” metric. […] On day 8, Tcell-GFP cells were analyzed using the “Total Green Object Integrated Intensity” metric. Each condition was performed at least in duplicates and each well was imaged at 4 different locations."}, "[7]": {"tested_on": "iCasp9-transduced MSCs", "test": "Apoptosis studies in vitro in iCasp9-ΔCD19 transduced MSCs", "format": "cell-based, human", "procedure": "Undifferentiated MSCs. The chemical inducer of dimerization (CID) (AP20187; ARIAD Pharmaceuticals, Cambridge, Mass.) was added at 50 nM to iCasp9-transduced MSCs cultures in complete medium. Apoptosis was evaluated 24 hours later by FACS analysis, after cell harvest and staining with annexin V-PE and 7-AAD in annexin V binding buffer (BD Biosciences, San Diego, Calif.). Control iCasp9-transduced MSCs were maintained in culture without exposure to CID.\nDifferentiated MSCs. Transduced MSCs were differentiated as presented above. At the end of the differentiation period, CID was added to the differentiation media at 50 nM. Cells were stained appropriately for the tissue being studied, as presented above, and a contrast stain (methylene azure or methylene blue) was used to evaluate the nuclear and cytoplasmic morphology. In parallel, tissues were processed for terminal deoxynucleotidyl-transferase dUTP nick end labeling (TUNEL) assay as per manufacturer instructions (In Situ Cell Death Detection Kit, Roche Diagnostics, Mannheim, Germany). For each time point, four random fields were photographed at a final magnification of 40× and the images were analyzed with ImageJ software version 1.430 (NIH, Bethesda, Md.). Cell density was calculated as the number of nuclei (DAPI positivity) per unit of surface area (in mm^2). The percentage of apoptotic cells was determined as the ratio of the number of nuclei with positive TUNEL signal (FITC positivity) to the total number of nuclei. Controls were maintained in culture without CID."}}}
{"smiles": "CC[C@H](C(=O)N1CCCC[C@H]1C(=O)O[C@H](CCc1ccc(OC)c(OC)c1)c1cccc(OCC(=O)NCCNC(=O)COc2cccc([C@@H](CCc3ccc(OC)c(OC)c3)OC(=O)[C@@H]3CCCCN3C(=O)[C@@H](CC)c3cc(OC)c(OC)c(OC)c3)c2)c1)c1cc(OC)c(OC)c(OC)c1", "note": "[rimiducid]", "values": [{"measurement": "number of Vβ1+CD8+ T cells in spleen", "setting": "[1]; 5 mg/kg rimiducid i.p. weekly day 14 to 38, spleens day 94, FIG. 121C", "result": "significantly increased"}, {"measurement": "anti-tumor efficacy of TCR-modified T cells with rimiducid-driven iMC activation", "setting": "[1]; summary, in vitro and in vivo", "result": "improved anti-tumor efficacy"}, {"measurement": "iMC-Bob-1 TCR-mediated cytotoxicity against U266", "setting": "[2]; FIG. 120A", "result": "rimiducid-independent"}, {"measurement": "IL-2 secretion, Bob-1 TCR with rimiducid-driven iMC costimulation, U266", "setting": "[2]; FIG. 120B", "result": "maximal IL-2 secretion"}, {"measurement": "IL-2 secretion, PRAME TCR with iMC", "setting": "[3]", "result": "maximal IL-2 secretion"}, {"measurement": "MC activity (secreted IL-6) in iMC+CARζ-T cells", "setting": "[4]; 24 hours", "result": "stimulated strongly"}, {"measurement": "MC activity (secreted IL-6) in MC-rap-T cells", "setting": "[4]; pBP1440, 24 hours", "result": "not stimulated"}, {"measurement": "rimiducid concentration required to activate iRC9", "setting": "[5]", "result": "> 100", "unit": "nM"}, {"measurement": "reduction of i9+CARζ+MC T cells", "setting": "[6]", "result": "approximately 50%"}]}
{"smiles": "CC[C@H](C(=O)N1CCCC[C@H]1C(=O)O[C@H](CCc1ccc(OC)c(OC)c1)c1cccc(OCC(=O)NCC(CNC(=O)COc2cccc([C@@H](CCc3ccc(OC)c(OC)c3)OC(=O)[C@@H]3CCCCN3C(=O)[C@@H](CC)c3cc(OC)c(OC)c(OC)c3)c2)CN(C)C)c1)c1cc(OC)c(OC)c(OC)c1", "note": "[AP20187]", "values": [{"measurement": "apoptosis index of iCasp9-negative cells", "setting": "[7]; CID 50 nM", "result": "20±7", "unit": "%"}, {"measurement": "apoptotic death of iCasp9-positive cells within 24 hrs", "setting": "[7]; CID 50 nM", "result": "93±1", "unit": "%"}, {"measurement": "annexin positive, negative population (iCasp neg/CID)", "setting": "[7]; CID 50 nM, 24 hours, FACS", "result": 19, "unit": "%"}, {"measurement": "annexin positive, non-transduced control MSC (Control/CID)", "setting": "[7]; CID 50 nM, 24 hours, FACS", "result": 15, "unit": "%"}, {"measurement": "cell density after 24 hours", "setting": "[7]; adipocytic differentiated iCasp9-positive cells, 50 nM CID, from 584", "result": "< 14", "unit": "cells/mm^2"}, {"measurement": "apoptotic cells among magnetically immunoselected iCasp9-CD19-positive cells", "setting": "[7]; after exposure to CID", "result": "More than 95%"}]}
